Structures are written as SMILES. Where only a bound is given, the exact number is not on record here.

For one experiment, the target named is T1, Tyrosinase (Agaricus bisporus) (UniProt O42713).
T1 sequence (whole entry): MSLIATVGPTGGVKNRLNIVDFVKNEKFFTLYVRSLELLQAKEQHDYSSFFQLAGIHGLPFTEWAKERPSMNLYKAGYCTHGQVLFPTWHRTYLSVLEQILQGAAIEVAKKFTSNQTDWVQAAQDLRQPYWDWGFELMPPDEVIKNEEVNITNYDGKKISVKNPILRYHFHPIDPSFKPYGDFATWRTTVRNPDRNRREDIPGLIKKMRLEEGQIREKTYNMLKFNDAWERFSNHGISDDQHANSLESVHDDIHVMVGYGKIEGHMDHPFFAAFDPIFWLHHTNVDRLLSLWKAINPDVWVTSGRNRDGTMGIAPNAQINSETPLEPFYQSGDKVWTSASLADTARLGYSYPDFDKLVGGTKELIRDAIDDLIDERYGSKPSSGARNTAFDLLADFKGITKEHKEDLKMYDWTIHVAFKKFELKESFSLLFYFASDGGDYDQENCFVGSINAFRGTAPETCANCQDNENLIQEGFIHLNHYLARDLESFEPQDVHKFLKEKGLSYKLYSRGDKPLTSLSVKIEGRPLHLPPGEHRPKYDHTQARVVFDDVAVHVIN
Kind of experiment: Inhibition of mushroom tyrosinase assessed as oxidation of L-dopa at 25 uM by spectrophotometric analysis.
In general, inhibition refers to the relative decrease from the control value, in per cent. In the case of `COc1ccc(CCC(c2ccc(O)cc2O)c2cc([C@H]3CCc4ccc(OC)c(CC=C(C)C)c4O3)c(O)cc2O)c(O)c1CC=C(C)C` (some centres not stated), the inhibition was under 50%.
Take `COc1ccc([C@@H]2CCc3ccc(O)c(CC=C(C)C)c3O2)c(O)c1`: the inhibition was under 50%.
On the same count and under the same terms, for `CC(C)=CCc1c(O)ccc2c1O[C@H](c1ccc(O)cc1)CC2` the value was under 50%; for `COc1ccc(CCC(c2ccc(O)cc2O)c2cc([C@@H]3CCc4ccc(OC)c(CC=C(C)C)c4O3)c(O)cc2O)c(O)c1CC=C(C)C` (some centres not stated), under 50%.

The next experiment deals with T2, Tyrosinase (Agaricus bisporus, UniProt O42713).
T2 sequence (O42713 whole entry): T1 sequence (whole entry)
Kind of experiment: Inhibition of mushroom tyrosinase assessed as oxidation of L-dopa by spectrophotometric analysis.
For orientation: IC50 means the concentration that gives 50% inhibition. For `COc1ccc2c(c1CCO)O[C@@H](c1ccc(O)cc1O)CC2`, the IC50 is 120 nM.
In the case of `COc1ccc2c(c1C/C=C(\C)CO)O[C@H](c1ccc(O)cc1O)CC2` [MORUSYUNNANSINS E], the IC50 is 1430 nM.
Take `CC(C)=CCc1c(O)ccc2c1O[C@H](c1ccc(O)cc1O)CC2` [MORUSYUNNANSINS F]: the IC50 is 150 nM.

Source of the values: ChEMBL document CHEMBL1949579, “2-Arylbenzofuran, flavonoid, and tyrosinase inhibitory constituents of Morus yunnanensis” (J Nat Prod, 2012).
